Key:
[1] = xn = mol fraction of the nth substance listed; conditions: 101 kPa, Liquid; for viscosity: Capillary tube (Ostwald / Ubbelohde) method; for mass density: Vibrating tube method
[2] = refractive index (Na D-line) (dimensionless); xn = mol fraction of the nth substance listed; conditions: 101 kPa, Liquid, Standard Abbe refractometry

CCCN [propan-1-amine] + C1CCOC1
Conditions | mass density, [1] [kg/m3] | refractive index, [2] | viscosity, [1] [mPa·s]
288.15 K, x2 = 0 | 721.57 | 1.3899 | 0.3851
288.15 K, x2 = 0.0542 | 730.55 | 1.3908 | 0.3898
288.15 K, x2 = 0.1599 | 748.15 | 1.3927 | 0.3991
288.15 K, x2 = 0.1934 | 753.76 | 1.3933 | 0.4021
288.15 K, x2 = 0.3199 | 775.03 | 1.3956 | 0.4138
288.15 K, x2 = 0.4 | 788.58 | 1.397 | 0.4211
288.15 K, x2 = 0.4789 | 802.01 | 1.3985 | 0.4289
288.15 K, x2 = 0.56 | 815.87 | 1.4 | 0.4371
288.15 K, x2 = 0.6402 | 829.71 | 1.4015 | 0.4455
288.15 K, x2 = 0.7201 | 843.56 | 1.4031 | 0.4546
288.15 K, x2 = 0.8791 | 871.41 | 1.4062 | 0.4765
288.15 K, x2 = 0.9585 | 885.46 | 1.4078 | 0.4902
298.15 K, x2 = 0 | 711.08 | 1.3844 | 0.3585
298.15 K, x2 = 0.0542 | 719.96 | 1.3854 | 0.3632
298.15 K, x2 = 0.1599 | 737.23 | 1.3873 | 0.372
298.15 K, x2 = 0.1934 | 742.73 | 1.3879 | 0.3747
298.15 K, x2 = 0.3199 | 763.65 | 1.3902 | 0.3856
298.15 K, x2 = 0.4 | 777.02 | 1.3917 | 0.3926
298.15 K, x2 = 0.4789 | 790.28 | 1.3931 | 0.3996
298.15 K, x2 = 0.56 | 804.04 | 1.3947 | 0.4071
298.15 K, x2 = 0.6402 | – | 1.3965 | –
298.15 K, x2 = 0.651 | 819.66 | – | 0.4149
298.15 K, x2 = 0.7201 | 831.66 | 1.3978 | 0.4229
298.15 K, x2 = 0.8791 | 859.85 | 1.4011 | 0.4396
298.15 K, x2 = 0.9585 | 874.29 | 1.4028 | 0.4489
308.15 K, x2 = 0 | 700.4 | 1.3784 | 0.3222
308.15 K, x2 = 0.0542 | 709.15 | 1.3793 | 0.3269
308.15 K, x2 = 0.1599 | 726.3 | 1.3812 | 0.3363
308.15 K, x2 = 0.1934 | 731.73 | 1.3818 | 0.3393
308.15 K, x2 = 0.3199 | 752.47 | 1.3842 | 0.3509
308.15 K, x2 = 0.4 | 765.73 | 1.3857 | 0.3584
308.15 K, x2 = 0.4789 | 778.88 | 1.3873 | 0.3659
308.15 K, x2 = 0.56 | 792.57 | 1.3889 | 0.3736
308.15 K, x2 = 0.6402 | – | 1.3906 | –
308.15 K, x2 = 0.651 | 806.31 | – | 0.3813
308.15 K, x2 = 0.7201 | 820.22 | 1.3923 | 0.3891
308.15 K, x2 = 0.8791 | 848.66 | 1.3958 | 0.4049
308.15 K, x2 = 0.9585 | 863.3 | 1.3977 | 0.4129

CCCN [propan-1-amine] + CCC(C)(C)O
Conditions | mass density, 288.15 K [kg/m3] | mass density, 298.15 K [kg/m3] | mass density, 308.15 K [kg/m3] | refractive index, 288.15 K | refractive index, 298.15 K | refractive index, 308.15 K | viscosity, 288.15 K [mPa·s] | viscosity, 298.15 K [mPa·s] | viscosity, 308.15 K [mPa·s]
[1], x2 = 0 | 721.57 | 711.08 | 700.4 | – | – | – | 0.3851 | 0.3585 | 0.3222
[1], x2 = 0.0733 | 731.65 | 721.43 | 710.97 | – | – | – | 0.4625 | 0.4161 | 0.3822
[1], x2 = 0.1528 | 742.12 | 732.03 | 721.79 | – | – | – | 0.5521 | 0.4813 | 0.4437
[1], x2 = 0.2327 | 752 | 742.1 | 732.07 | – | – | – | 0.6938 | 0.5258 | 0.501
[1], x2 = 0.3155 | 761.54 | 751.82 | 741.93 | – | – | – | 0.8513 | 0.6157 | 0.5725
[1], x2 = 0.398 | 770.38 | 760.84 | 751.09 | – | – | – | 1.041 | 0.7142 | 0.6756
[1], x2 = 0.4888 | 779.41 | 770.02 | 760.39 | – | – | – | 1.354 | 0.8835 | 0.8338
[1], x2 = 0.5804 | 787.76 | 778.45 | 768.97 | – | – | – | 1.827 | 1.129 | 1.03
[1], x2 = 0.6697 | 795.11 | 785.88 | 776.64 | – | – | – | 2.39 | 1.468 | 1.283
[1], x2 = 0.7769 | 802.69 | 793.82 | 784.6 | – | – | – | 3.288 | 1.974 | 1.664
[1], x2 = 0.8741 | 808.3 | 799.58 | 790.43 | – | – | – | 4.258 | 2.565 | 2.03
[1], x2 = 0.9498 | 811.88 | 803.1 | 793.93 | – | – | – | 5.17 | 3.068 | 2.304
[2], x2 = 0 | – | – | – | 1.3899 | 1.3844 | 1.3784 | – | – | –
[2], x2 = 0.0733 | – | – | – | 1.392 | 1.3868 | 1.3809 | – | – | –
[2], x2 = 0.1528 | – | – | – | 1.3944 | 1.3893 | 1.3835 | – | – | –
[2], x2 = 0.2327 | – | – | – | 1.3968 | 1.3917 | 1.386 | – | – | –
[2], x2 = 0.3155 | – | – | – | 1.3989 | 1.394 | 1.3884 | – | – | –
[2], x2 = 0.398 | – | – | – | 1.4009 | 1.3961 | 1.3906 | – | – | –
[2], x2 = 0.4888 | – | – | – | 1.4028 | 1.398 | 1.3926 | – | – | –
[2], x2 = 0.5804 | – | – | – | 1.4043 | 1.3996 | 1.3944 | – | – | –
[2], x2 = 0.6697 | – | – | – | 1.4053 | 1.4005 | 1.3954 | – | – | –
[2], x2 = 0.7769 | – | – | – | 1.4058 | 1.4012 | 1.3962 | – | – | –
[2], x2 = 0.8741 | – | – | – | 1.406 | 1.4013 | 1.3964 | – | – | –
[2], x2 = 0.9498 | – | – | – | 1.4061 | 1.4014 | 1.3966 | – | – | –

CCC(C)(C)O [2-methylbutan-2-ol] + C1CCOC1
Conditions | mass density, 288.15 K [kg/m3] | mass density, 298.15 K [kg/m3] | mass density, 308.15 K [kg/m3] | refractive index, 288.15 K | refractive index, 298.15 K | refractive index, 308.15 K | viscosity, 288.15 K [mPa·s] | viscosity, 298.15 K [mPa·s] | viscosity, 308.15 K [mPa·s]
[1], x1 = 0.1028 | 881.2 | 870.63 | 859.92 | – | – | – | 0.7142 | 0.5079 | 0.4359
[1], x1 = 0.1791 | 873.29 | 862.93 | 852.42 | – | – | – | 0.895 | 0.5724 | 0.4592
[1], x1 = 0.2676 | 865.01 | 854.87 | 844.57 | – | – | – | 1.13 | 0.6232 | 0.5449
[1], x1 = 0.3601 | 857.15 | 847.22 | 837.11 | – | – | – | 1.365 | 0.7532 | 0.6428
[1], x1 = 0.45 | 850.2 | 840.46 | 830.51 | – | – | – | 1.63 | 0.8859 | 0.747
[1], x1 = 0.5402 | 843.79 | 834.19 | 824.37 | – | – | – | 1.968 | 1.064 | 0.8887
[1], x1 = 0.6295 | 837.94 | 828.48 | 818.76 | – | – | – | 2.399 | 1.288 | 1.055
[1], x1 = 0.7058 | 833.16 | 823.78 | 814.12 | – | – | – | 2.849 | 1.548 | 1.232
[1], x1 = 0.8097 | 826.96 | 817.62 | 808.01 | – | – | – | 3.623 | 2.008 | 1.548
[1], x1 = 0.8903 | 821.89 | 812.56 | 802.98 | – | – | – | 4.381 | 2.517 | 1.907
[1], x1 = 0.9629 | 816.9 | 807.57 | 798.22 | – | – | – | 5.245 | 3.052 | 2.234
[1], x1 = 1 | 814.01 | 804.88 | 795.52 | – | – | – | 5.867 | 3.478 | 2.504
[2], x1 = 0.1028 | – | – | – | 1.4076 | 1.4027 | 1.3979 | – | – | –
[2], x1 = 0.1791 | – | – | – | 1.4069 | 1.4022 | 1.3974 | – | – | –
[2], x1 = 0.2676 | – | – | – | 1.4065 | 1.4018 | 1.3972 | – | – | –
[2], x1 = 0.3601 | – | – | – | 1.4064 | 1.4018 | 1.3971 | – | – | –
[2], x1 = 0.45 | – | – | – | 1.4066 | 1.402 | 1.3972 | – | – | –
[2], x1 = 0.5402 | – | – | – | 1.4068 | 1.4022 | 1.3974 | – | – | –
[2], x1 = 0.6295 | – | – | – | 1.407 | 1.4023 | 1.3976 | – | – | –
[2], x1 = 0.7058 | – | – | – | 1.4071 | 1.4024 | 1.3977 | – | – | –
[2], x1 = 0.8097 | – | – | – | 1.4071 | 1.4024 | 1.3977 | – | – | –
[2], x1 = 0.8903 | – | – | – | 1.4069 | 1.4022 | 1.3975 | – | – | –
[2], x1 = 0.9629 | – | – | – | 1.4065 | 1.4018 | 1.3972 | – | – | –
[2], x1 = 1 | – | – | – | 1.4062 | 1.4015 | 1.3968 | – | – | –

From the NIST ThermoML archive (doi:10.1016/j.jct.2010.05.009)
